The pIC50 is −log10 of the IC50, conventionally taken in molar units.

IC50 and GI50 data for eleven compounds are collected here from patent US20230027026A1, “FUSED PYRIMIDINE COMPOUNDS, COMPOSITIONS AND MEDICINAL APPLICATIONS THEREOF” (JUBILANT BIOSYS LIMITED, priority 2019, published 2023).

The structures appear in SMILES notation. pIC50: −log10 of the molar value. Where a name gives a salt, the structure may show the parent alone.

Holding throughout (format): cell-based
The subject of one experiment is A431 cells. Description: Cellular proliferation (Alamar Blue) assay, A431. To be noted: Homo sapiens, A-431; A431 cells, 72 hr, Alamar Blue; read-out: A431 IC50. The method in brief:
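Following a 16–18 h pre-incubation, cells received compound or DMSO for 72 h at 37 °C across a 10–0.0005 μM final range. Proliferation was then scored by Alamar Blue fluorescence (540 nm excitation, 590 nm emission) after 3 h.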
Background: The colour change of resazurin is a common sign of viable cells or microbes.

For experiment [1], the target named is EGFR (A767_dupASV) expressing Ba/F3 stable cell line (Homo sapiens, UniProt P00533, DUP767-769, cells depend on it). Description: Cellular proliferation (Alamar Blue) assay, EGFR A767_dupASV Ba/F3. The settings on record: EGFR A767_dupASV Ba/F3, 72 hr, read-out: A767 IC50. The method in brief:
(§1)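 Ba/F3 lines were seeded at 15,000 cells/well in RPMI with 10% FBS and rested 16–18 h at 37 °C. Compounds were added as 3-fold serial dilutions (final 10–0.0005 μM) for 72 h, then Alamar Blue was added for 3 h and fluorescence read at 540 nm excitation/590 nm emission.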

Experiment [2] deals with EGFR(D770_N771insSVD) expressing Ba/F3 stable cell line (Homo sapiens, UniProt P00533, DUP768-770, cells depend on it). Kind of experiment: Cellular proliferation (Alamar Blue) assay, EGFR D770_N771insSVD Ba/F3. To be noted: EGFR D770_N771insSVD Ba/F3, 72 hr, read-out: D770 IC50. The method in brief: as §1
EGFR(D770_N771insSVD) expressing Ba/F3 stable cell line, sequence (P00533 with tags, fused parts or gaps DUP768-770): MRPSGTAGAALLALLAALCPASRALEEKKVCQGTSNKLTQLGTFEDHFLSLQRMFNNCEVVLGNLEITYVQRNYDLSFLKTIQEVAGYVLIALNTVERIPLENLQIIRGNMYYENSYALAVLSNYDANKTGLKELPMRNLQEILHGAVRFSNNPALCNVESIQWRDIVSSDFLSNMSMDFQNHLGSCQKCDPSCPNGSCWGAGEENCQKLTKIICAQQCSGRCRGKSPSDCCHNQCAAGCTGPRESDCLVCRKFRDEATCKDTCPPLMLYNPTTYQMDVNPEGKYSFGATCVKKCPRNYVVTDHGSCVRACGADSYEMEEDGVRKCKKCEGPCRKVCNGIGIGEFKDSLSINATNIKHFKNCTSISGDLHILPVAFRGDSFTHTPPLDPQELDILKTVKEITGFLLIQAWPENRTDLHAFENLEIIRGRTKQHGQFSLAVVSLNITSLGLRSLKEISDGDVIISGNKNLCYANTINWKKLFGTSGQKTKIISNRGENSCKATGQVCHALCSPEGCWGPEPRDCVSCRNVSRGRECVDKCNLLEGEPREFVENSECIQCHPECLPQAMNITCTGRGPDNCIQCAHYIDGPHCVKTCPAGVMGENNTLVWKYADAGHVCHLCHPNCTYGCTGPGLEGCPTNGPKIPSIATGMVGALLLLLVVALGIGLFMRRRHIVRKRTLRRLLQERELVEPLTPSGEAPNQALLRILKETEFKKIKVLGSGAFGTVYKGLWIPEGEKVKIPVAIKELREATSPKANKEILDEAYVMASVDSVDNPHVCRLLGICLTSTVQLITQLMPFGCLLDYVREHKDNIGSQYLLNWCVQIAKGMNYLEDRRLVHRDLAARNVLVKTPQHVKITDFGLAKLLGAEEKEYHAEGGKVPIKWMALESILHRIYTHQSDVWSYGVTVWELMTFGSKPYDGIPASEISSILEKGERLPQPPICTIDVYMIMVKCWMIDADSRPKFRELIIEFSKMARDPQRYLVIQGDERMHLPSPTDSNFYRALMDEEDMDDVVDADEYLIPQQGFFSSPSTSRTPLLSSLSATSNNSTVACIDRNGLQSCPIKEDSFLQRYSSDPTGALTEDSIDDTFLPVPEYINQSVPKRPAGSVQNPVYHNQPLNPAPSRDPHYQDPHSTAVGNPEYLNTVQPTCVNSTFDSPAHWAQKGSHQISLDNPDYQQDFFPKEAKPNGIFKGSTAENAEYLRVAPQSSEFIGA
For experiment [3], the target named is HER2 (A775_G776insYVMA) expressing Ba/F3 stable cell line (Homo sapiens, UniProt P04626, DUP772-775, cells depend on it). Description: Cellular proliferation (Alamar Blue) assay, HER2 YVMA Ba/F3. To be noted: HER2 A775_G776insYVMA Ba/F3, 72 hr, read-out: YVMA IC50. How it is done: Example 3: Cellular Proliferation (Alamar Blue) Assays
HER2 (A775_G776insYVMA) expressing Ba/F3 stable cell line, sequence (P04626 with tags, fused parts or gaps DUP772-775): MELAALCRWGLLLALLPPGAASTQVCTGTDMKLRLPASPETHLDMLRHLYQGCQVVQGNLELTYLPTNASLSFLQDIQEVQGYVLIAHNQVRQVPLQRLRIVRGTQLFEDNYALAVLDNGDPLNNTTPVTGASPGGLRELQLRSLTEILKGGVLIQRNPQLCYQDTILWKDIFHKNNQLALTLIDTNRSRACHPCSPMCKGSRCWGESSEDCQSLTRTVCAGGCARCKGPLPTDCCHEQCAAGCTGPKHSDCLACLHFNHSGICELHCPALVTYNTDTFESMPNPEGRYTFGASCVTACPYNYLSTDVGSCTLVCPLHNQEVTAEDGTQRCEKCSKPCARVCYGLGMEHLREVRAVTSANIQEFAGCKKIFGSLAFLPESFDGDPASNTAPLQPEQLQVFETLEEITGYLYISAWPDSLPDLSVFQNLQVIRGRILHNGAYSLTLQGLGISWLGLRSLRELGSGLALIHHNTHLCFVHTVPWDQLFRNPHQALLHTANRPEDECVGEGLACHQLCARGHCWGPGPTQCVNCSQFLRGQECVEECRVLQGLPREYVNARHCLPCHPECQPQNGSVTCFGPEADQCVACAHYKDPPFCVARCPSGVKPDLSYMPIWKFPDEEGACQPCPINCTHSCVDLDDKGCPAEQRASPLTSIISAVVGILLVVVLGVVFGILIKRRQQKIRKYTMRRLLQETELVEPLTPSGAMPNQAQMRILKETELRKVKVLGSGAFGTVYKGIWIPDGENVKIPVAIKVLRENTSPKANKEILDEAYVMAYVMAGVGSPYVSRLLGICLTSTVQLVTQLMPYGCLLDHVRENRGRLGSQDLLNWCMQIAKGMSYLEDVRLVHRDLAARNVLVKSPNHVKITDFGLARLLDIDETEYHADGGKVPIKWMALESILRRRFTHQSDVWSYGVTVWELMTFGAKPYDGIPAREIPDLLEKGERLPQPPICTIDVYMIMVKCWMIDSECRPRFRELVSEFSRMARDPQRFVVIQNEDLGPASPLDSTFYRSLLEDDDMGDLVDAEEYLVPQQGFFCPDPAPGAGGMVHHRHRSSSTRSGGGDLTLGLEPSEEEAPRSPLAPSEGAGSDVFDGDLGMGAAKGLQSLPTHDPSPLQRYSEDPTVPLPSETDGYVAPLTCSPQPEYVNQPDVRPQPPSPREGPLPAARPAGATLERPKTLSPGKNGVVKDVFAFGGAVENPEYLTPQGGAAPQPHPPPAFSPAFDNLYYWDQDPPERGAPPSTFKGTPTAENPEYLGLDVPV
• 1. EGFR(D770_N771insSVD) expressing Ba/F3 stable cell line • 2. EGFR (A767_dupASV) expressing Ba/F3 stable cell line • 3. A431 cells • 4. BTER2 (A775_G776insYVMA) expressing Ba/F3 stable cell line • 5. BTER2 (WT) expressing Ba/F3 stable cell line • 6. BT-474 cells
• 1. Seed cells at 5000 for A431 and 15,000 cells for Ba/F3 in 100 μL/well in complete media (for A431: DMEM with 10% FBS and for Ba/F3 cells: RPMI with 10% FBS) in 96-well tissue culture plate. Leave outer wells without cells for background measurements. Incubate at 37 degree Celsius in 5% CO2 humidified incubator for 16-18 hours. • 2. Add 0.025 ml of 5× concentration compound dilution or DMSO control. Final compound concentration range is 10-0.0005 μM prepared in 3-fold serial dilutions. Incubate for 72 hr at 37 degree Celsius in […] humidified incubator. • 3. Add 0.0125 mL Alamar Blue™ reagent to each well with multi-channel pipette and tap gently on each side of the plate to mix. Incubate for 3 hours at 37 degree Celsius in […] humidified incubator. • 4. Read plates on fluorescence reader (Tecan Spark Control, Device: Spark, Serial #: 1801006040) at 540 nm excitation, 590 nm emission wavelength. • 5. Data analysis was performed using XLfit 5.5.0.5.

EGFR (A767_dupASV) expressing Ba/F3 stable cell line, sequence (P00533 with tags, fused parts or gaps DUP767-769): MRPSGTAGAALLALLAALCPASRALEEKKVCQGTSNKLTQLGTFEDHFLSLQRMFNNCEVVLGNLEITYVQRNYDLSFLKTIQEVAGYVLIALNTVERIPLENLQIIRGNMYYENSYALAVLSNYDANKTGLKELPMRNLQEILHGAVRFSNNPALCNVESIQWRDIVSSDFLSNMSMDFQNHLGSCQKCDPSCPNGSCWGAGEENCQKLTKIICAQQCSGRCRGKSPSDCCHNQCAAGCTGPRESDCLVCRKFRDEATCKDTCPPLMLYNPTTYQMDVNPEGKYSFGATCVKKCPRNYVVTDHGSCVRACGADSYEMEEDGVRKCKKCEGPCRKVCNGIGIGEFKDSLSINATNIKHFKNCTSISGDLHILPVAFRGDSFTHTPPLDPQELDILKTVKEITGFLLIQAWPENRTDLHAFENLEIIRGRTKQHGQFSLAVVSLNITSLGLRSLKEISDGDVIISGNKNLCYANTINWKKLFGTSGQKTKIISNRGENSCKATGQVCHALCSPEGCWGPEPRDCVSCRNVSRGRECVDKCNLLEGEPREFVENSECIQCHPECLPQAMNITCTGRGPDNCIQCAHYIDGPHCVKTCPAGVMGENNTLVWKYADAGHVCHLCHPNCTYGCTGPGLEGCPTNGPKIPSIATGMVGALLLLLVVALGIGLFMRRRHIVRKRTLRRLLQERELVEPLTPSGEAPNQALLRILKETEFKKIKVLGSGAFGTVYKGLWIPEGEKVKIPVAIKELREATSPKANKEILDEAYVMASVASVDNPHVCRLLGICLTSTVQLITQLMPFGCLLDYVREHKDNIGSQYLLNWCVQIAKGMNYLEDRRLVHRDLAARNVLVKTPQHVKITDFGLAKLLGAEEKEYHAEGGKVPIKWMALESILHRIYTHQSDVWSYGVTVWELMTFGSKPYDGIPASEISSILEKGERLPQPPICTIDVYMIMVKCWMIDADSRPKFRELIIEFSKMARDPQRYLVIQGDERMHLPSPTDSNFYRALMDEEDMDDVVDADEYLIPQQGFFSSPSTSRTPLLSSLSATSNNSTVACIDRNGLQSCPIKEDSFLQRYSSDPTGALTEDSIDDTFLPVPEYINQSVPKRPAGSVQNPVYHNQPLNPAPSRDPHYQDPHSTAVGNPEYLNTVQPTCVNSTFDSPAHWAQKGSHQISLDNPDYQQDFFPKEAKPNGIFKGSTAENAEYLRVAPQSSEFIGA

Regarding `C=CC(=O)Nc1cccc(N2C(=O)N(Cc3ccc(C)cc3C)Cc3cnc(Nc4cn(C)nc4Cl)nc32)c1` [Compound 69, N-(3-(7-((3-chloro-1-methyl-1H-pyrazol-4-yl)amino)-3-(2,4-dimethylbenzyl)-2-oxo-3,4-dihydropyrimido[4,5-d]pyrimidin-1(2H)-yl)phenyl)acrylamide], the pIC50 in the experiment on A431 cells is ≤ 5.00. In addition, the GI50 in experiment [1] was determined as 333 nM; in experiment [2], 349 nM; in experiment [3] it was 682 nM.
For `C=CC(=O)Nc1cccc(N2C(=O)N(Cc3ccccc3)Cc3cnc(Nc4cn(C)nc4F)nc32)c1` [Compound 71, N-(3-(3-benzyl-7-((3-fluoro-1-methyl-1H-pyrazol-4-yl)amino)-2-oxo-3,4-dihydropyrimido[4,5-d]pyrimidin-1(2H)-yl)phenyl)acrylamide], in that order: ≤ 5.00, 22 nM, 21 nM and 137 nM.
Regarding `C=CC(=O)Nc1cccc(N2C(=O)N(c3ccccc3)Cc3cnc(Nc4cn(C(C)(C)C#N)nc4Cl)nc32)c1` [Compound 123, N-(3-(7-((3-chloro-1-(2-cyanopropan-2-yl)-1H-pyrazol-4-yl)amino)-2-oxo-3-phenyl-3,4-dihydropyrimido[4,5-d]pyrimidin-1(2H)-yl)phenyl)acrylamide trifluoroacetate salt], the pIC50 with A431 cells was ≤ 5.00. For the same compound, the GI50 in experiment [1] came out at 176 nM; in experiment [2], 300 nM; in experiment [3] it was 319 nM.
In the same order, the values of `C=CC(=O)Nc1ccc(F)c(N2C(=O)N(c3ccccc3)Cc3cnc(Nc4cn(C)nc4Cl)nc32)c1` [Compound 128, N-(3-(7-((3-chloro-1-methyl-1H-pyrazol-4-yl)amino)-2-oxo-3-phenyl-3,4-dihydropyrimido[4,5-d]pyrimidin-1(2H)-yl)-4-fluorophenyl)acrylamide trifluoroacetate salt] are ≤ 5.00, 11 nM, 12 nM and 24 nM.
In the same order, the values of `C=CC(=O)Nc1ccc(N2C(=O)N(c3ccccc3)Cc3cnc(Nc4cn(C)nc4Cl)nc32)cc1` [Compound 131, N-(4-(7-((3-chloro-1-methyl-1H-pyrazol-4-yl)amino)-2-oxo-3-phenyl-3,4-dihydropyrimido[4,5-d]pyrimidin-1(2H)-yl)phenyl)acrylamide] are 5.45, 373 nM, 765 nM and 1130 nM.
Consider `C=CC(=O)Nc1cccc(N2C(=O)N(c3ccccc3)Cc3cnc(Nc4cn(C)nc4Cl)nc32)c1` [Compound 116, N-(3-(7-((3-chloro-1-methyl-1H-pyrazol-4-yl)amino)-2-oxo-3-phenyl-3,4-dihydropyrimido[4,5-d]pyrimidin-1(2H)-yl)phenyl)acrylamide], for which the pIC50 in the experiment on A431 cells is ≤ 5.00. Moreover, the GI50 in experiment [1] is 1 nM; in experiment [2], 7 nM; in experiment [3], 24 nM.
With `C=CC(=O)Nc1cccc(N2C(=O)N(c3ccccc3)Cc3cnc(Nc4ccc(N5CCC(N(C)C)CC5)nc4)nc32)c1` [Compound 112, N-(3-(7-((6-(4-(dimethylamino)piperidin-1-yl)pyridin-3-yl)amino)-2-oxo-3-phenyl-3,4-dihydropyrimido[4,5-d]pyrimidin-1(2H)-yl)phenyl)acrylamide], in the experiment with A431 cells, the pIC50 is ≤ 5.00. Further, the GI50 in experiment [1] was determined as 229 nM; in experiment [2] it was 295 nM; in experiment [3], 354 nM.
In the same order, the values of `Cn1cc(Nc2ncc3c(n2)N(c2cccc(NC(=O)/C=C/CN4CCCCC4)c2)C(=O)N(c2ccccc2)C3)c(Cl)n1` [Compound 111, (E)-N-(3-(7-((3-chloro-1-methyl-1H-pyrazol-4-yl)amino)-2-oxo-3-phenyl-3,4-dihydropyrimido[4,5-d]pyrimidin-1(2H)-yl)phenyl)-4-(piperidin-1-yl)but-2-enamide] are ≤ 5.00, 39 nM, 128 nM and 64 nM.
Regarding `CN(C)C/C=C/C(=O)Nc1ccc(F)c(N2C(=O)N(Cc3ccccc3)Cc3cnc(Nc4cn(C)nc4Cl)nc32)c1` [Compound 85, (E)-N-(3-(3-benzyl-7-((3-chloro-1-methyl-1H-pyrazol-4-yl)amino)-2-oxo-3,4-dihydropyrimido[4,5-d]pyrimidin-1(2H)-yl)-4-fluorophenyl)-4-(dimethylamino)but-2-enamide], the pIC50 in the experiment on A431 cells is 5.89. Further, the figures for the GI50 in experiment [1], in experiment [2] and in experiment [3] were 94 nM, 123 nM and 38 nM, respectively.
As for `CC#CC(=O)Nc1cccc(N2C(=O)N(c3ccccc3)Cc3cnc(Nc4cn(C)nc4Cl)nc32)c1` [Compound 125, N-(3-(7-((3-chloro-1-methyl-1H-pyrazol-4-yl)amino)-2-oxo-3-phenyl-3,4-dihydropyrimido[4,5-d]pyrimidin-1(2H)-yl)phenyl)but-2-ynamide], the pIC50 with A431 cells was ≤ 5.00. Moreover, the GI50 in experiment [1] is 269 nM; in experiment [2], 338 nM; in experiment [3], 445 nM.
As to `C=CC(=O)Nc1cccc(N2C(=O)N(c3ccccc3)Cc3cnc(Nc4ccc(N5CCN(C)CC5)nc4)nc32)c1` [Compound 110, N-(3-(7-((6-(4-methylpiperazin-1-yl)pyridin-3-yl)amino)-2-oxo-3-phenyl-3,4-dihydropyrimido[4,5-d]pyrimidin-1(2H)-yl)phenyl)acrylamide], the pIC50 with A431 cells is 5.44. The GI50 in experiment [1] amounted to 43 nM; in experiment [2], 102 nM; in experiment [3] it was 103 nM.
